From ChEMBL document CHEMBL3397002, “Design, synthesis, and bioevaluation of paeonol derivatives as potential anti-HBV agents” (Eur J Med Chem, 2015)

Experiments:
[1] = Selectivity index, ratio of TC50 for human HepG2(2.2.15) cells to IC50 for decrease in HBV viral DNA replication in human HepG2(2.2.15) cells
[2] = Cytotoxicity against human HepG2(2.2.15) cells assessed as decrease in cell viability after 72 hrs by MTS assay; type: cell-based; conditions: read-out: TC50
[3] = tested on: Hepatitis B virus; assay: Decrease in HBV viral DNA replication in human HepG2(2.2.15) cells at 0.75 to 3 uM after 72 hrs by real-time PCR analysis; type: functional, organism-based; conditions: HepG2 2.2.15, 72 h
[4] = Selectivity index, ratio of TC50 for human HepG2(2.2.15) cells to IC50 for decrease in hepatitis B viral surface antigen HBeAg secretion in human HepG2(2.2.15) cells
[5] = tested on: Hepatitis B virus; assay: Decrease in hepatitis B viral surface antigen HBsAg secretion in human HepG2(2.2.15) cells at 0.75 to 3 uM after 72 hrs by EIA analysis; type: functional, organism-based; conditions: HepG2 2.2.15, 72 h
[6] = tested on: Hepatitis B virus; assay: Decrease in hepatitis B viral surface antigen HBeAg secretion in human HepG2(2.2.15) cells at 0.75 to 3 uM after 72 hrs by EIA analysis; type: functional, organism-based; conditions: HepG2 2.2.15, 72 h
[7] = Selectivity index, ratio of TC50 for human HepG2(2.2.15) cells to IC50 for decrease in hepatitis B viral surface antigen HBsAg secretion in human HepG2(2.2.15) cells
[8] = Effect on cellular morphology of human HepG2(2.2.15) cells at 0.75 to 3 uM after 72 hrs by Giemsa staining method; type: ADME, cell-based; conditions: hepg2 2.2.15, 72 h
[9] = Effect on cell cycle of human HepG2(2.2.15) cells assessed as cells at G2M phase at 0.75 to 3 uM after 72 hrs by propidium iodide staining based flow cytometry; type: ADME; conditions: hepg2 2.2.15, 72 h
[10] = tested on: Hepatitis B virus; assay: Decrease in level of HBV 3.5-kb precore/pregenomic and 2.4-/2.1-kb surface antigen RNA in human HepG2(2.2.15) cells after 48 hrs by Northern blot analysis; type: functional, organism-based
[11] = Effect on cell cycle of human HepG2(2.2.15) cells assessed as cells at G1 phase at 0.75 to 3 uM after 72 hrs by propidium iodide staining based flow cytometry; type: ADME; conditions: hepg2 2.2.15, 72 h

Row | SMILES | Selectivity Index [1] | CC50 at 72 h [2] [µM] | IC50 [3] [µM] | Selectivity Index [4] | IC50 [5] [µM] | IC50 [6] [µM] | Selectivity Index [7] | Activity [8] | Activity [9] | inhibition [10] | Activity [11]
1 | Nc1ccn([C@@H]2CS[C@H](CO)O2)c(=O)n1 [LAMIVUDINE] | 46.13 | 352 | 7.63 | – | – | – | – | – | – | – | –
2 | COc1ccc(C(C)=O)c(OS(=O)(=O)c2ccc(C)cc2)c1 | 22.81 | 23.7 | 1.04 | 3.47 | 3.18 | 6.83 | 7.46 | – | – | – | –
3 | COc1ccc(S(=O)(=O)Oc2cc(OC)ccc2C(C)=O)cc1 | 47.75 | 17.2 | 0.36 | 7.67 | 1.55 | 2.24 | 11.09 | Non-toxic | Non-toxic | Dose-dependent effect | Non-toxic
4 | COc1ccc(C(C)=O)c(OS(=O)(=O)c2ccccc2)c1 | 29.77 | 55.4 | 1.86 | 3.36 | 7.3 | 16.5 | 7.58 | – | – | – | –
5 | COc1ccc(C(C)=O)c(OS(=O)(=O)c2ccc([N+](=O)[O-])cc2)c1 | 9.5 | 10.9 | 1.15 | 2.35 | 1.77 | 4.64 | 6.17 | – | – | – | –
6 | O=c1[nH]cc(F)c(=O)[nH]1 [FLUOROURACIL] | – | 21.7 | – | – | – | – | – | – | – | – | –
7 | COc1ccc(C(C)=O)c(OS(=O)(=O)c2ccc(Cl)cc2)c1 | 24.16 | 13.8 | 0.57 | 3.28 | 2.83 | 4.2 | 4.87 | – | – | – | –
8 | COc1ccc(C(C)=O)c(OS(=O)(=O)c2ccc(N)cc2)c1 | – | 68.8 | – | 0.95 | 21.7 | 72.5 | 3.17 | – | – | – | –
9 | COc1ccc(C(C)=O)c(OS(=O)(=O)c2ccc(F)cc2)c1 | 19.82 | 53.7 | 2.71 | 4.81 | 5.05 | 11.2 | 10.64 | – | – | – | –
10 | COc1ccc(C(C)=O)c(OS(=O)(=O)c2ccc(Br)cc2)c1 | 22.91 | 10.1 | 0.44 | 5.42 | 2.01 | 1.86 | 4.99 | – | – | – | –
